From article PMC12064818, “A general assay platform to study protein pharmacology using ligand-dependent structural dynamics” (Nature Communications, 2025)
Values joined by “and” are separate entries in the source; they are usually repeats but may differ in a detail not shown here. Equal entries are not always repeated. Where two headings read alike, the source gives them in different places. Values belong to the compound of their own block, whether it stands above or below them.

How the values were obtained:
DHFR-C-HiBiT = target: T1, DHFR-C-HiBiT (Homo sapiens, UniProt P00374); assay: SDR assay, purified DHFR-C-HiBiT; settings: DHFR-C-HiBiT 0.5 nM, 5 μM NADPH (SDR) vs 100 nM, 75 μM NADPH (functional)
T1 sequence (P00374 2-187): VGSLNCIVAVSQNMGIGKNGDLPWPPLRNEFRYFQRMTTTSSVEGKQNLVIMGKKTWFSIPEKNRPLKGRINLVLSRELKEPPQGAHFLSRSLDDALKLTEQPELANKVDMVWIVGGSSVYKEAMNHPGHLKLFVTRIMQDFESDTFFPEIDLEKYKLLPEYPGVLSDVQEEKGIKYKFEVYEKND

PKA-N-HiBiT [1] = target: T2, PKA-N-HiBiT (Homo sapiens, UniProt P17612); assay: SDR assay, PKA-N-HiBiT; settings: for SDR Ave Max Response: average maximal response
[2] = target: T3, ABL1-N-HiBiT kinase domain (Homo sapiens, UniProt P00519); assay: SDR assay, ABL1-N-HiBiT; settings: for SDR output: ABL1-N-HiBiT, Log [Compound]
T3 sequence (P00519 233-500): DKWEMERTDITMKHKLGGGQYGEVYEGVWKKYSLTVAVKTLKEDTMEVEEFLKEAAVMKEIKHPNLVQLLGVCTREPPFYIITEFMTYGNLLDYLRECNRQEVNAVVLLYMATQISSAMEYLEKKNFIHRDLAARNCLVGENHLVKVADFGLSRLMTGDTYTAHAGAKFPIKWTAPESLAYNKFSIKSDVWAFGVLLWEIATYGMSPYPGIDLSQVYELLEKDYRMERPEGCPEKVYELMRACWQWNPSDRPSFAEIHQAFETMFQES

PKA = settings: annotation yes/no for kinase library compound; source not given; cited from earlier work
ABL1 = settings: cited from earlier work
PKA-N-HiBiT [3] = target: T2, PKA-N-HiBiT; assay: PKA peptide phosphorylation, Kinase-Glo Plus (KGP) assay, PKA-N-HiBiT; assay type: biochemical; design: containing amino acids Gly2-Phe351; His10 (N); made in house; host or cells: E. coli BL21(DE3); settings: for CC-v2: curve class
Method: (§1) Kinase activity was measured by ATP depletion using the Kinase-Glo Plus (KGP) assay kit (Promega) in 1536-well plate format. […] Controls were added with a Mosquito dispenser (STP LabTech) while compounds were transferred with a pintool to each plate as described in Supplementary Data 8 and incubated for 30 min at ambient temperature. […] Following a 10 min incubation, KGP luminescence was measured with a ViewLux plate reader with 1 sec exposure, with medium to high gain setting, slow speed and 2x binning. Data were normalized to the average of no enzyme control column as 100% kinase inhibition and DMSO control column as 100% phosphorylation reaction progress. See Supplementary Table 5 for additional details.
(§2) Protocol for Abelson kinase (ABL1) and protein kinase A (PKA) peptide phosphorylation assays
(§3) Supplementary Table 5: Protocol for Abelson kinase (ABL1) and protein kinase A (PKA) peptide phosphorylation assays Sequence Param eter Value Description
(§4) 3 Incubation 30 m in Incubate enzym e + com pounds at am bient tem p for 30 m in, protected from light […]
(§5) protocol; dispensed with BioRaptr 2

[4] = target: T3, ABL1-N-HiBiT kinase domain; assay: ABL1 peptide phosphorylation, Kinase-Glo Plus (KGP) assay, ABL1-N-HiBiT; assay type: biochemical; design: containing amino acid residues Asp233-Ser500; His10 (N); made in house; host or cells: E. coli BL21(DE3)
Method: as §1, §2, §3, §4, §5

[5] = target: T4, ABL1-C-HiBiT kinase domain (Homo sapiens, UniProt P00519); assay: SDR assay, ABL1-C-HiBiT; settings: for SDR output: ABL1-C-HiBiT, Log [Compound]
T4 sequence (P00519 233-500): T3 sequence (P00519 233-500)

[6] = ABL1-N-HiBiT qHTS, average maximal SDR response

enhanced sensitivity in the SDR assay format versus functional DHFR assay (DHFR-C-HiBiT): ~ 100 fold
Compound: COc1cc(NCc2ccc3nc(N)nc(N)c3c2C)cc(OC)c1OC [trimetrexate]

Compound: COc1cc(N2CCN(C)CC2)ccc1Nc1nc(N)c(C(=O)c2c(Cl)cccc2Cl)s1 [HMSL10089]
SDR Ave Max Response (PKA-N-HiBiT [1]; PKA-N-HiBiT qHTS, SDR assay): -4.43 | SDR Ave Max Response [2]: 0.77 | Annotated PKA activity (PKA): no | Annotated ABL1 activity (ABL1): no

Compound: Cn1c(=O)c2c(ncn2C)n(C)c1=O [Caffeine]
SDR Ave Max Response (PKA-N-HiBiT [1]; PKA-N-HiBiT qHTS, SDR assay): -17.81 | SDR Ave Max Response [2, 6]: 3.59 | Annotated PKA activity (PKA): no | Annotated ABL1 activity (ABL1): no | Efficacy (PKA-N-HiBiT [3]; KGP Rep 1): -14.65 | Hill Coef (PKA-N-HiBiT [3]; KGP Rep 1): 2.85 | Max Resp (PKA-N-HiBiT [3]; KGP Rep 1): 7.79 | CC-v2 (PKA-N-HiBiT [3]; KGP Rep 1): 4

Compound: O=C(NCCO)c1cccc(-c2cc(Nc3ccc(OC(F)(F)F)cc3)ncn2)c1 [GNF-5, reference compound]
Emax (PKA-N-HiBiT [1]; read-out: SDR Ave Max Response): 1.25% | detection in ABL1-N-HiBiT SDR assay (in words) [2]: neither was identified | Emax ([2]; read-out: SDR Ave Max Response): 13.8% | Annotated PKA activity (PKA): no | detection in functional enzymatic ABL1 kinase assay (in words) ([4]; KGP assay): neither was identified | detection in ABL1-C-HiBiT SDR assay (in words) [5]: beginning to detect

Compound: O=C(NCCO)c1cccc(-c2cc(Nc3ccc(OC(F)(F)F)cc3)ncn2)c1 [GNF5]
SDR output ([2]; M -4.51): -1.2 | SDR output ([2]; M -8.12): 1.9 and 2.5 | SDR output ([2]; M -8.42): 2.5 | SDR output ([2]; M -8.72): 2.7 and 1.9 | Effect on enzyme catalysis ([4]; Log [Compound], M -4.51): 1.2 and 2.4 | SDR output ([5]; M -4.20): 11.5 and 10.7 | SDR output ([5]; M -5.41): 4.5 and 3.0 | SDR output ([5]; M -5.71): 0.159 and 0.3 | SDR output ([5]; M -7.21): 1.8 and 1.6 | SDR output ([5]; M -7.52): 3.3 and 3.0 | SDR output ([5]; M -7.82): 5.4 and 5.3 | SDR output ([5]; M -8.12): 3.3 and 3.7 | SDR output ([5]; M -8.42): 7.4 and 4.5

Compound: Nc1ncnc2c1c(-c1cnc3[nH]ccc3c1)nn2C1CCCC1 [PP-121]
SDR Ave Max Response (PKA-N-HiBiT [1]; PKA-N-HiBiT qHTS, SDR assay): 6.39 | Annotated PKA activity (PKA): yes | Annotated ABL1 activity (ABL1): yes

Compound: I-BET762
SDR Ave Max Response [2, 6]: 6.74 | Annotated ABL1 activity (ABL1): no

SDR Ave Max Response (PKA-N-HiBiT [1]; PKA-N-HiBiT qHTS, SDR assay): 6.70 | SDR Ave Max Response [2, 6]: 9.57 | Efficacy ([4]; KGP Rep 1): 49.18 | Hill Coef ([4]; KGP Rep 1): 4.96 | Max Resp ([4]; KGP Rep 1): 37.84 | CC-v2 ([4]; KGP Rep 1, curve class): 3 | Efficacy (PKA-N-HiBiT [3]; KGP Rep 1): 0.00 | Max Resp (PKA-N-HiBiT [3]; KGP Rep 1): 8.95 | CC-v2 (PKA-N-HiBiT [3]; KGP Rep 1): 4
Compound: CCN1/C(=C/C(C)=O)Sc2ccc(OC)cc21 [TG003]
Annotated PKA activity (PKA): no

SDR Ave Max Response (PKA-N-HiBiT [1]; PKA-N-HiBiT qHTS, SDR assay): 5.41 | SDR Ave Max Response [2]: 72.22
Compound: COc1cc2c(Oc3ccc4[nH]c(C)cc4c3F)ncnc2cc1OCCCN1CCCC1 [Cediranib]
Annotated PKA activity (PKA): no | Annotated ABL1 activity (ABL1): yes

SDR Ave Max Response (PKA-N-HiBiT [1]; PKA-N-HiBiT qHTS, SDR assay): 40.60 | EC50 (PKA-N-HiBiT [1]; read-out: PKA SDR Ave SDR50, PKA-N-HiBiT qHTS, SDR assay, average): 4.56 µM | ABL1 SDR pSDR50 ([2]; ABL1, SDR, heatmap data, 128 kinase inhibitors): 4.94 | SDR Ave Max Response [2, 6]: 70.73 | EC50 ([2]; read-out: SDR Ave SDR50, ABL1-N-HiBiT qHTS, average, unit inferred): 12 µM | IC50 ([4]; ABL1-N-HiBiT qHTS, average, unit inferred, read-out: ABL1 KGP Ave IC50): 5.86 µM | IC50 (PKA-N-HiBiT [3]; PKA-N-HiBiT qHTS, Kinase-Glo Plus, average, read-out: PKA KGP Ave IC50): 45.5 µM
Compound: PF-562271 HCl
Annotated PKA activity (PKA): no

Compound: Nc1nc(N)c2nc(CNc3ccc(C(=O)N[C@@H](CCC(=O)O)C(=O)O)cc3)cnc2n1 [aminopterin]
enhanced sensitivity in the SDR assay format versus functional DHFR assay (DHFR-C-HiBiT): ~ 100 fold
